In patent US9259401B2 (priority 2011, dated 2016):

What was measured:
[1] = test system: Male Laca mice; experiment: Porsolt Forced Swim test (behavioural despair test); format: in vivo
Description: Method: Porsolt Forced Swim test (also called behavioural despair test)
Animals are subjected to two trials during which they are force to swim in an acrylic glass cylinder filled with water and from which they cannot escape. The first trial lasts 15 minutes. Then, after 24-hours, a second trial is performed which lasts 5 minutes. The time that the animal spends without moving in the second trial is measured. This immobility time is decreased by antidepressants.
After some time, the mice give up the attempt to escape from the water and subside into immobility. The duration of the immobility is measured. An animal was considered to be immobile whenever it remained floating passively in the water in a slightly hunched but upright position, its nose above the water surface. […] The total immobility period during the 6-min test was recorded with the help of stopwatch.
The immobility period data obtained from tables 1, 2 and 3 is plotted against the dose administered in FIG. 1, FIG. 2 and FIG. 3 respectively, as shown in the drawing accompanying this specification.
Test Procedures: Porsolt Forced Swim test. Rectangular glass jar (25×12×25 cm^3) containing 15 cm of water maintained at 24±1° C.
The immobility period data obtained from Tables 4, 5, 6 and 7 is plotted against the dose administered in FIG. 4, FIG. 5, FIG. 6 and FIG. 7 respectively, as shown in the drawing accompanying this specification.

[2] = test system: AC activity and c-AMP levels; conditions: platelet and various brain regions, CUMS rats; cited from earlier work
[3] = test system: hippocampal neurogenesis; conditions: 10 and 20 mg/kg, P.O., chronically stressed rats; cited from earlier work

COc1cc(C=CC(=O)CC(=O)C=Cc2ccc(O)c(OC)c2)ccc1O [Curcumin, 1,7-bis(4-hydroxy-3-methoxyphenyl)-1,6-heptadien-3,5-dione]
Potentiation with sub-effective dose of desipramine ([1]; 50 mg/kg with desipramine 5 mg/kg): failed to show any potentiation
Potentiated effect with sub-effective dose of tranylcypromine ([1]; 50 mg/kg with tranylcypromine 5 mg/kg): None
% Decrease in immobility w.r.t saline treated group ([1]; Table 1, dose 50 mg/kg): 22.55%
Immobility period (in seconds) ([1]; Table 1, dose 50 mg/kg): 171.8 ± 10.87^ seconds
% Decrease in immobility w.r.t saline treated group ([1]; Table 2, dose 100 mg/kg): 9.89%
Immobility period ([1]; Table 2, dose 100 mg/kg): 174.2 ± 15.17 s
% Decrease in immobility w.r.t saline treated group ([1]; Table 3, dose 200 mg/kg): 31.10%
Immobility period ([1]; Table 3, dose 200 mg/kg): 133.2 ± 26.82 s
% Decrease in immobility w.r.t saline group ([1]; Table 4, alone, 50 mg/kg): 12.79%
Immobility period (in seconds) ([1]; Table 4, alone, 50 mg/kg): 171.8 ± 10.87^ seconds
% Decrease in immobility w.r.t vehicle group ([1]; Table 5, alone, 50 mg/kg): 24.46%
Immobility period ([1]; Table 5, alone, 50 mg/kg): 160.33 ± 19.09 s
% Decrease in immobility w.r.t vehicle group ([1]; Table 6, alone, 50 mg/kg): 15.90%
Immobility period ([1]; Table 6, alone, 50 mg/kg): 215.50 ± 13.97 s
% Decrease in immobility w.r.t vehicle group ([1]; Table 7, alone, 50 mg/kg): 4.91%
Immobility period ([1]; Table 7, alone, 50 mg/kg): 262.25 ± 11.89 s
AC activity and c-AMP levels [2]: enhanced AC activity and c-AMP levels
Hippocampal neurogenesis [3]: increased hippocampal neurogenesis
